# What was measured:
# Format in all cases: in vivo
# [1] = test system: Western Flower Thrips (Frankliniella occidentalis, FRANOC); assay: Bioassay 3: Western Flower Thrips, cotton leaf disc dip, live WFT counted 3 days after treatment; conditions: AI alone 0.0003125 % w/v
# Description: (§1) Stock solutions of Formula One and various active ingredients were prepared initially at a concentration of 8 mg/ml for Formula One and 1 mg/mL for the active ingredients, respectively, using acetone as a diluent. Stock solutions were prepared with Formula One as well as for each of the active ingredients individually. Test solutions were prepared from the stock solutions. Test solutions were prepared containing Formula One, the individual active ingredients, and mixtures of Formula One with each of the active ingredients. The test solution for Formula One was prepared by adding 500 μL of the stock solution to a 25 mL glass vial, then adding 500 μL of acetone, followed by the addition of 9 mL water with 0.025% Tween®) 20 to create a 0.04% (w/v) solution. The test solutions of the individual active ingredients were prepared by adding 500 μL of stock solution to a 25 mL glass vial, then adding 500 μL of acetone, followed by the addition of 9 mL water with 0.025% Tween®) 20 to create a 0.005% (w/v) solution. The test solutions containing mixtures of Formula One and the individual active ingredients were prepared by adding 500 μL of the active ingredient stock solution to a 25 mL glass vial, followed by 500 μL of the Formula One stock solution, then by the addition of 9 mL water with 0.025% Tween®) 20 to create a test solution containing 0.04% (w/v) Formula One and 0.005% (w/v) of the active ingredient. Each test solution was serially diluted to create desired doses of test solutions (0.005% (w/v), 0.00125% (w/v), 0.0003125% (w/v), 0.000078% (w/v), and 0.0000195% (w/v)). In test solutions containing mixtures of Formula One and the active ingredients, the active ingredients were diluted as described above, but the Concentration of Formula One was held constant (0.04% (w/v)).
# The test solutions were tested against WFT using the following procedure: Leaf discs (2.7 cm in diameter) were cut from the true leaves of cotton plants. Leaf discs were dipped into the test solutions and shaken to ensure complete coverage of the leaf disc and then placed in Millipore®) PetriSlides containing a filter paper disc. Treated leaf discs were air dried for approximately 1 hour. Each leaf disc was infested with 5 WFT (9-10-day old nymphs) by placement on each leaf disc, and the PetriSlides were capped to prevent escape. Each treatment was replicated three times and the test treatments were held at approximately 26° C. and ambient relative humidity (RH) prior to grading. Reference discs (solvent check) were treated with the diluent only. Evaluation was conducted by counting the number of live WFT under magnification 3 days after treatment. Percent control was measured using Abbott's correction formula (W. S. Abbott, J. Econ. Entomol. 18 (1925), pp. 265-267) as follows:
# (§2) where X=No. of live nymphs on solvent check leaf discs and Y=No. of live nymphs on treated leaf discs. In Table B3 the “Expected % Control” was calculated using the method described in Colby S. R., Weeds, 1967, 15, 20-22. Bioassay 4: Western Tarnished Plant Bug (Lygus hesperus, LYGUHE) (“WTPB”).
# [2] = test system: Western Tarnished Plant Bug (Lygus hesperus, LYGUHE); assay: Bioassay 4: Western Tarnished Plant Bug, soaked green bean segments, living nymphs 3 days after application
# Description: as §2
# as §1, with “Stock” for “Stock solutions of Formula One and various active ingredients were prepared initially at a concentration of 8 mg/ml for Formula One and 1 mg/mL for the active ingredients, respectively, using acetone as a diluent. Stock”
# The test solutions were tested against WTPB using the following procedure: Fresh green beans were cut into segments approximately 1.5 inches long. Four bean segments were added to each 25 mL vial containing the test solutions and soaked for approximately 15 minutes. After soaking, a single bean fragment was removed and placed into a single well of a 32-well rearing tray (Frontier Agricultural Sciences™), on top of a round filter paper disc. A reference treatment (solvent check) was treated with the diluent only. Each treatment was replicated four times and the test treatments were held at approximately 26° C. and ambient relative humidity (RH) prior to grading. Bean segments were allowed to air dry for ˜30 minutes. Three WTPB nymphs were added to and contained in each well with a clear perforated adhesive lid. The total number of living WTPB nymphs was recorded 3 days after application. Scoring was based off the total number of living nymphs out of all four replicates. Percent control was measured using Abbott's correction formula (W. S. Abbott, J. Econ. Entomol. 18 (1925), pp. 265-267) as follows:
# (§3) X=No. of live nymphs on solvent check and Y=No. of live nymphs on treated bean segments. In Table B4 the “Expected % Control” was calculated using the method described in Colby S. R., Weeds, 1967, 15, 20-22. Bioassay 5: Neotropical Brown Stink Bug (Euschistus heros, EUSCHE) (“BSB”).
# [3] = test system: Neotropical Brown Stink Bug (Euschistus heros, EUSCHE); assay: whole plant or invertebrate
# Description: as §3
# Stock solutions were prepared with Formula One as well as for each of the active ingredients individually. Test solutions were prepared from the stock solutions. Test solutions were prepared containing Formula One, the individual active ingredients, and mixtures of Formula One with each of the active ingredients. The test solution for Formula One was prepared by adding 500 μL of the stock solution to a 25 mL glass vial, then adding 500 μL of acetone, followed by the addition of 9 mL water with 0.025% Tween®) 20 to create a 0.04% (w/v) solution. The individual active ingredients were prepared by adding 500 μL of stock solution to a 25 mL glass vial, then adding 500 μL of acetone, followed by the addition of 9 mL water with 0.025% Tween®) 20 to create a 0.005% (w/v) solution. The test solutions containing mixtures of Formula One and the individual active ingredients were prepared by adding 500 μL of the active ingredient stock solution to a 25 mL glass vial, followed by 500 μL of the Formula One stock solution, then by the addition of 9 mL water with 0.025% Tween®) 20 to create a test solution containing 0.04% (w/v) Formula One and 0.005% (w/v) of the active ingredient. Each test solution was serially diluted to create desired doses of test solutions (0.01% (w/v), 0.0025% (w/v), 0.000625% (w/v), 0.000156% (w/v), and 0.000039% (w/v)). In test solutions containing mixtures of Formula One and the active ingredients, the active ingredients were diluted as described above, but the Concentration of Formula One was held constant (0.04% (w/v)).
# The test solutions that were tested against BSB were similar to those described above for WTPB. Fresh green beans were cut into segments approximately 1.5 inches long. Four bean segments were added to each test solution and soaked for approximately 15 minutes. After soaking, a single bean fragment was removed and placed into a single well of a 32-well rearing tray (Frontier Agricultural Sciences™), on top of a round filter paper disc. A reference treatment (solvent check) was treated with the diluent only. Each treatment was replicated four times and the test treatments were held at approximately 26° C. and ambient relative humidity (RH) prior to grading. Bean segments were allowed to air dry for ˜30 minutes. Three BSB nymphs were added to and contained in each well with a clear perforated adhesive lid. The total number of living BSB nymphs was recorded 3 days after application. Scoring was based off the total number of living nymphs out of all four replicates. Percent control was measured using Abbott's correction formula (W. S. Abbott, J. Econ. Entomol. 18 (1925), pp. 265-267) as follows:
# where X=No. of live nymphs on solvent check and Y=No. of live nymphs on treated bean segments. In Table B5 the “Expected % Control” was calculated using the method described in Colby S. R., Weeds, 1967, 15, 20-22. Bioassay 6: Beet Armyworm (Spodoptera exigua, LAPHEG) (BAW), and Diamondback Moth (Plutella xylostella, PLUTMA) (DBM).
# [4] = test system: Sweet Potato Whitefly (Bemisia tabaci, BEMITA); assay: Bioassay 8: Sweet Potato Whitefly, spray on cotton seedlings at crawler emergence, nymphs counted 7-9 days after treatment; conditions: AI alone 0.1 (10^-5) Wt %
# Description: where X=No. of live aphids on solvent check plants and Y=No. of live aphids on treated plants. In Table B1 the “Expected % Control” was calculated using the method described in Colby S. R., Weeds, 1967, 15, 20-22. Bioassay 8: Sweet Potato Whitefly (Bemisia tabaci, BEMITA) (“SPW”).
# (§4) Stock solutions were prepared with Formula One as well as for each of the active ingredients individually. Test solutions were prepared from the stock solutions. Test solutions were prepared containing Formula One, the individual active ingredients, and mixtures of Formula One with each of the active ingredients. The test solutions for Formula One and the individual active ingredients were prepared by adding 500 μL of stock solution to a 25 mL glass vial, then adding 500 μL of acetone, followed by the addition of 9 mL water with 0.025% Tween®) 20 to create a 0.001% (w/v) solution. The test solutions containing mixtures of Formula One and the individual active ingredients were prepared by adding 500 μL of the active ingredient stock solution to a 25 mL glass vial, followed by 500 μL of the Formula One stock solution, then by the addition of 9 mL water with 0.025% Tween®) 20 to create a test solution containing 0.001% (w/v) Formula One and 0.001% (w/v) of the active ingredient. Each test solution was serially diluted to create desired doses of test solutions (0.001% (w/v), 0.0001% (w/v), 0.00001% (w/v), 0.000001% (w/v), 0.0000001% (w/v), 0.000008% (w/v) and 0.00000001% (w/v)).
# (§5) The test solutions were tested against SPW using the following procedure: Cotton seedlings grown in 3-inch pots, pruned so that only one true leaf remained, were used as test substrate. Adult B. tabaci were allowed to colonize the cotton plants and lay eggs for 24 hours after which all adults were removed from the plants using compressed air. Plants were monitored for egg development and, when crawler emergence was underway (>25% emergence based on visual examination using a microscope), the plants were sprayed using the test solutions and methods described above for green peach aphids (GPA). Treated plants were held in a holding room at approximately 25° C. and ambient relative humidity (RH) prior to grading. Evaluation was conducted by counting the number of developed 2-3 instar nymphs per plant under a microscope 7-9 days after treatment. Percent control was measured using Abbott's correction formula (W. S. Abbott, J. Econ. Entomol. 18 (1925), pp. 265-267) as follows:
# where X=No. of live nymphs on solvent check plants and Y=No. of live nymphs on treated plants. In Table B2 the “Expected % Control” was calculated using the method described in Colby S. R., Weeds, 1967, 15, 20-22. Bioassay 9: Diamondback Moth (Plutella xylostella, PLUTMA) (DBM).
# [5] = test system: Sweet Potato Whitefly (Bemisia tabaci, BEMITA); assay: Bioassay 2: Sweet Potato Whitefly, spray on cotton seedlings at crawler emergence, nymphs counted 7-9 days after treatment; conditions: AI alone 1 (10-5) % w/v
# Description: as §4, with “(w/v),” for “(w/v), 0.000008% (w/v)”
# as §5
# where X=No. of live nymphs on solvent check plants and Y=No. of live nymphs on treated plants. In Table B2 the “Expected % Control” was calculated using the method described in Colby S. R., Weeds, 1967, 15, 20-22. Bioassay 3: Western Flower Thrips (Frankliniella occidentalis, FRANOC) (“WFT”).
molecule,measurement,setting,value
O=c1c(-c2cccc(C(F)(F)F)c2)c([O-])[n+](Cc2cncnc2)c2ccccn12 [Triflumezopyrim],Average % Control AI,[1],7%
same,Average % Control AI,[2]; AI alone 0.005 % w/v,9%
CC(c1ccc(C(F)(F)F)nc1)S(C)(=O)=NC#N (centres unmarked) [Sulfoxaflor],pest or weed control at 0.0025 % strength,"[3]; Euschistus heros, 72 h, AI alone 0.0025 % w/v, read-out: Average % Control AI",58%
same,Average % Control AI,[2]; AI alone 0.0003125 % w/v,0%
CC1(C)C(C=C(Cl)Cl)C1C(=O)OC(C#N)c1ccc(F)c(Oc2ccccc2)c1 (centres unmarked) [Cyfluthrin],Average % Control A1,[4],46.90%
Spinetoram,Average % Control AI,[3]; AI alone 0.000625 % w/v,8%
same,Average % Control AI,[2]; AI alone 0.005 % w/v,0%
same,Average % Control AI,[5],41%
